Measurements published in PubChem BioAssay AID2060325 (Molecular Pharmacology Branch, DTP, NCI, 2025).

System: SK-OV-3 multi-cell spheroids, viability
Assay: Anticancer human tumor SK-OV-3 cell line growth inhibition [IpAb];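 as to viability, T/C: viability read after seven days of drug exposure; percent of DMSO vehicle control luminescence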
Settings: for IC50: curve of first compound; for viability, T/C: stronger effect = lower value
Summary of the method: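 Multi-cell spheroids of 60% tumour cells, 25% HUVEC and 15% MSC in ultra-low-attachment U-bottom wells, treated with agents combined with ipatasertib or abemaciclib. Half-log ranges top out near clinical Cmax, or 10 microM when Cmax is unknown.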

[1] = second compound 0.01 µM, first compound 0.0316 µM
[2] = second compound 0.01 µM, first compound 0.1 µM
[3] = second compound 0.01 µM, first compound 0.316 µM
[4] = second compound 0.01 µM, first compound 1 µM
[5] = second compound 0.01 µM, first compound 3.16 µM
[6] = second compound 0.01 µM, first compound 10 µM
[7] = second compound 0.0316 µM, first compound 0.0316 µM
[8] = second compound 0.0316 µM, first compound 0.1 µM
[9] = second compound 0.0316 µM, first compound 0.316 µM
[10] = second compound 0.0316 µM, first compound 1 µM
[11] = second compound 0.0316 µM, first compound 3.16 µM
[12] = second compound 0.0316 µM, first compound 10 µM
[13] = second compound 0.1 µM, first compound 0.0316 µM
[14] = second compound 0.1 µM, first compound 0.1 µM
[15] = second compound 0.1 µM, first compound 0.316 µM
[16] = second compound 0.1 µM, first compound 1 µM
[17] = second compound 0.1 µM, first compound 3.16 µM
[18] = second compound 0.1 µM, first compound 10 µM
[19] = second compound 0.316 µM, first compound 0.0316 µM
[20] = second compound 0.316 µM, first compound 0.1 µM
[21] = second compound 0.316 µM, first compound 0.316 µM
[22] = second compound 0.316 µM, first compound 1 µM
[23] = second compound 0.316 µM, first compound 3.16 µM
[24] = second compound 0.316 µM, first compound 10 µM
[25] = second compound 1 µM, first compound 0.0316 µM
[26] = second compound 1 µM, first compound 0.1 µM
[27] = second compound 1 µM, first compound 0.316 µM
[28] = second compound 1 µM, first compound 1 µM
[29] = second compound 1 µM, first compound 3.16 µM
[30] = second compound 1 µM, first compound 10 µM

SMILES | IC50 (second compound 0.01 µM) [nM] | IC50 (second compound 0.0316 µM) [nM] | IC50 (second compound 0.1 µM) [nM] | IC50 (second compound 0.316 µM) [nM] | IC50 (second compound 1 µM) [nM] | viability, T/C [1] [%] | viability, T/C [2] [%] | viability, T/C [3] [%] | viability, T/C [4] [%] | viability, T/C [5] [%] | viability, T/C [6] [%] | viability, T/C [7] [%] | viability, T/C [8] [%] | viability, T/C [9] [%] | viability, T/C [13] [%] | viability, T/C [14] [%] | viability, T/C [19] [%] | viability, T/C [20] [%] | viability, T/C [25] [%] | viability, T/C [26] [%] | also measured
C=CC(=O)N1CCN(c2nc(=O)n(-c3c(C)ccnc3C(C)C)c3nc(-c4c(O)cccc4F)c(F)cc23)C(C)C1 (stereo not given) + CCN1CCN(Cc2ccc(Nc3ncc(F)c(-c4cc(F)c5nc(C)n(C(C)C)c5c4)n3)nc2)CC1 | > 10000 | > 10000 | > 10000 | > 10000 | > 10000 | 89.9 | 99.2 | 93.8 | 107 | 96.5 | 61.7 | 74.4 | 82.8 | 79 | 58.8 | 66.5 | 53.7 | 59 | 47 | 53.3 | viability, T/C [10]: 81.8%; viability, T/C [11]: 85.4%; viability, T/C [12]: 53.8%; viability, T/C [15]: 65.5%; viability, T/C [16]: 69%; viability, T/C [17]: 73.2%; viability, T/C [18]: 47.1%; viability, T/C [21]: 61.8%; viability, T/C [22]: 61%; viability, T/C [23]: 62.8%; viability, T/C [24]: 48%; viability, T/C [27]: 53.7%; viability, T/C [28]: 55.5%; viability, T/C [29]: 57.5%; viability, T/C [30]: 46.9%
Cn1ncc(Cl)c1-c1cc(C(=O)NC(CN)Cc2cccc(F)c2)sc1Cl (stereo not given) + CCN1CCN(Cc2ccc(Nc3ncc(F)c(-c4cc(F)c5nc(C)n(C(C)C)c5c4)n3)nc2)CC1 | 66 | 34.7 | < 31.6 | < 31.6 | < 31.6 | 66.5 | 41 | 22.1 | 14.1 | 6.99 | 0.34 | 52.8 | 30.6 | 22.3 | 42.7 | 26.7 | 43.3 | 29.8 | 36.3 | 34.7 | viability, T/C [10]: 13.8%; viability, T/C [11]: 7.67%; viability, T/C [12]: 0.51%; viability, T/C [15]: 18.1%; viability, T/C [16]: 12.9%; viability, T/C [17]: 7.38%; viability, T/C [18]: 0.3%; viability, T/C [21]: 20%; viability, T/C [22]: 15.1%; viability, T/C [23]: 8.84%; viability, T/C [24]: 0.17%; viability, T/C [27]: 24.4%; viability, T/C [28]: 17.8%; viability, T/C [29]: 12.2%; viability, T/C [30]: 0.39%
Cn1ncnc1[C@H]1c2n[nH]c(=O)c3cc(F)cc(c23)N[C@@H]1c1ccc(F)cc1 + CCN1CCN(Cc2ccc(Nc3ncc(F)c(-c4cc(F)c5nc(C)n(C(C)C)c5c4)n3)nc2)CC1 | > 100 | > 100 | > 100 | > 100 | < 0.316 | 83.4 | 60.2 | – | – | – | – | 66.3 | 58.4 | – | 53.2 | 50.5 | 51.4 | 53.3 | 45.4 | 43 | viability, T/C (second compound 0.01 µM, first compound 0.000316 µM): 99.8%; viability, T/C (second compound 0.01 µM, first compound 0.001 µM): 93.9%; viability, T/C (second compound 0.01 µM, first compound 0.00316 µM): 86.6%; viability, T/C (second compound 0.01 µM, first compound 0.01 µM): 86.3%; viability, T/C (second compound 0.0316 µM, first compound 0.000316 µM): 75.2%; viability, T/C (second compound 0.0316 µM, first compound 0.001 µM): 81.6%; viability, T/C (second compound 0.0316 µM, first compound 0.00316 µM): 70.7%; viability, T/C (second compound 0.0316 µM, first compound 0.01 µM): 63.4%; viability, T/C (second compound 0.1 µM, first compound 0.000316 µM): 60.7%; viability, T/C (second compound 0.1 µM, first compound 0.001 µM): 59.5%; viability, T/C (second compound 0.1 µM, first compound 0.00316 µM): 56.4%; viability, T/C (second compound 0.1 µM, first compound 0.01 µM): 53.4%; viability, T/C (second compound 0.316 µM, first compound 0.000316 µM): 55.8%; viability, T/C (second compound 0.316 µM, first compound 0.001 µM): 56.3%; viability, T/C (second compound 0.316 µM, first compound 0.00316 µM): 52.1%; viability, T/C (second compound 0.316 µM, first compound 0.01 µM): 52%; viability, T/C (second compound 1 µM, first compound 0.000316 µM): 49.5%; viability, T/C (second compound 1 µM, first compound 0.001 µM): 45.1%; viability, T/C (second compound 1 µM, first compound 0.00316 µM): 43.2%; viability, T/C (second compound 1 µM, first compound 0.01 µM): 46.4%
